Experimental data: patent US20220175856A1, “UNRAVELING RECEPTOR-METABOLITE INTERACTIONS IN THE HUMAN MICROBIOME” (The Rockefeller University, priority 2019, published 2022)
Entries after “also recorded” stand apart in the source; their conditions may differ. Where two headings read alike, the source gives them in different places.

How the values were obtained:
GPR109B = GPR109B (Homo sapiens, UniProt P49019); experiment: cell-based
Source text: (§1) Individual bacteria from the SIHUMI consortium were fermented under anaerobic conditions in 20 L culture vessels, along with a media control containing no bacteria (FIG. 1). After 10 days, the extracellular metabolites were extracted and the crude mixture was partitioned into metabolite-rich fractions using reversed phased flash chromatography. The pre-fractionation process simplifies each fraction, thereby improving the signal in the primary screen and facilitating the downstream isolation of bioactive compounds. The fraction library was screened for agonist activity against individual GPCRs using a luminescence-based β-arrestin recruitment assay.
(§2) Compound plates were shipped on dry ice to Eurofins DiscoverX and the gperMAX and orphanMAX panels were run on all 80 samples in singleton.

[1] = target: brain angiogenesis factor 1 (BAI1) (Homo sapiens, UniProt O14514); experiment: β-arrestin recruitment GPCR agonist assay (PathHunter), BAI1; assay type: cell-based
Sequence of brain angiogenesis factor 1 (BAI1) (O14514 31-1584): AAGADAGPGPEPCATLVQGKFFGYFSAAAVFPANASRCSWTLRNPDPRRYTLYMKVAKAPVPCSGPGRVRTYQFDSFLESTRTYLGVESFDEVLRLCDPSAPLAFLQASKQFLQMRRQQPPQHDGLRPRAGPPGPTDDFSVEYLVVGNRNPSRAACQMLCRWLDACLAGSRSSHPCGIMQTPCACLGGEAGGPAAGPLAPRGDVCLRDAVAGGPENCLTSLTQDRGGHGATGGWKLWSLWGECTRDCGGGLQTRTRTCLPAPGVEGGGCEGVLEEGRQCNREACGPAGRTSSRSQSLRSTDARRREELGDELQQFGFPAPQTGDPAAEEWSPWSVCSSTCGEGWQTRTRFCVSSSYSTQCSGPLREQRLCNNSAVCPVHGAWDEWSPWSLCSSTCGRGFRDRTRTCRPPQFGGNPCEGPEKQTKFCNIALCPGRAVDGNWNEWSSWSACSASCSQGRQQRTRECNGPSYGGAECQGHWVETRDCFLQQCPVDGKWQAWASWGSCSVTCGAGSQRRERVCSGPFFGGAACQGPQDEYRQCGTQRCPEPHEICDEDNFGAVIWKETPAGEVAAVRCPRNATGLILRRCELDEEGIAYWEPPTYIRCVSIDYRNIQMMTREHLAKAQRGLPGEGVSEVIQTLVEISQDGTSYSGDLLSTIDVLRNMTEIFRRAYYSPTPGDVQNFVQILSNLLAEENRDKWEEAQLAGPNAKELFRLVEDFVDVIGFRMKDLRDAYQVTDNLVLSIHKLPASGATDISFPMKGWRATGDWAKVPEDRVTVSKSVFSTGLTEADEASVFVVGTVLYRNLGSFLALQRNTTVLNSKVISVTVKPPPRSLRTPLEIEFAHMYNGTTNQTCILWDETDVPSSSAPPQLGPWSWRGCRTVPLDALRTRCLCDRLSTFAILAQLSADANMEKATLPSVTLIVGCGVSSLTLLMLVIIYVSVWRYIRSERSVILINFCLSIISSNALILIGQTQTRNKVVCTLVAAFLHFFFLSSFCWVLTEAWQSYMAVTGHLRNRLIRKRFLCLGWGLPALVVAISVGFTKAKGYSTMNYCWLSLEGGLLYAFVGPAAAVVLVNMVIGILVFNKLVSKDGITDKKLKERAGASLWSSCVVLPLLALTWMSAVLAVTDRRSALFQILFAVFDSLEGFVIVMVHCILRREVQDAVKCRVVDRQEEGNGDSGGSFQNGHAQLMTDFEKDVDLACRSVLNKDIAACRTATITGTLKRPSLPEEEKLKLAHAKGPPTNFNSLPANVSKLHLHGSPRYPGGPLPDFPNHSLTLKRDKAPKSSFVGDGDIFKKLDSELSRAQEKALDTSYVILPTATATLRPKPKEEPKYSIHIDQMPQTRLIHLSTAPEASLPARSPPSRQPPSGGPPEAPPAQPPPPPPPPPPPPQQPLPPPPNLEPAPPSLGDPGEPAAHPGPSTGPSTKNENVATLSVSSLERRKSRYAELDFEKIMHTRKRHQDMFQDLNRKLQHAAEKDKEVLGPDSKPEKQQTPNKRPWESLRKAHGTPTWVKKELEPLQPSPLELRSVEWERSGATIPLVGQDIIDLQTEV

[2] = target: T1, urotensin 2 receptor (UTR2) (Homo sapiens, UniProt Q9UKP6); experiment: β-arrestin recruitment GPCR agonist assay (PathHunter), UTR2; assay type: cell-based; conditions: for agonist activity at UTR2: result in words
T1 sequence (Q9UKP6 1-389): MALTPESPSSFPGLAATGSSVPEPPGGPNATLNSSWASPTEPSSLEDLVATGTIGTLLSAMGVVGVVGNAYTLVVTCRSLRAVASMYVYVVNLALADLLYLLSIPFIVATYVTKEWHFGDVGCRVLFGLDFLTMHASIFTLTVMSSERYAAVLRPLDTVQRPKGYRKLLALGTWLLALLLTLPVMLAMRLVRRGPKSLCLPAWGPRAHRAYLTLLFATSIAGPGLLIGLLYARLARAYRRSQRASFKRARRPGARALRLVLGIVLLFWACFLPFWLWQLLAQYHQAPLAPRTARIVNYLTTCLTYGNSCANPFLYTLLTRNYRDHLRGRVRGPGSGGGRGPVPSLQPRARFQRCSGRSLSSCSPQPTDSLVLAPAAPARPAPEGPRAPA

[3] = target: T2, NMU1R (neuromedin receptor 1) (Homo sapiens, UniProt Q9HB89); experiment: β-arrestin recruitment GPCR agonist assay (PathHunter), NMU1R; assay type: cell-based; conditions: for agonist activity at NMU1R: result in words
T2 sequence (Q9HB89 1-426): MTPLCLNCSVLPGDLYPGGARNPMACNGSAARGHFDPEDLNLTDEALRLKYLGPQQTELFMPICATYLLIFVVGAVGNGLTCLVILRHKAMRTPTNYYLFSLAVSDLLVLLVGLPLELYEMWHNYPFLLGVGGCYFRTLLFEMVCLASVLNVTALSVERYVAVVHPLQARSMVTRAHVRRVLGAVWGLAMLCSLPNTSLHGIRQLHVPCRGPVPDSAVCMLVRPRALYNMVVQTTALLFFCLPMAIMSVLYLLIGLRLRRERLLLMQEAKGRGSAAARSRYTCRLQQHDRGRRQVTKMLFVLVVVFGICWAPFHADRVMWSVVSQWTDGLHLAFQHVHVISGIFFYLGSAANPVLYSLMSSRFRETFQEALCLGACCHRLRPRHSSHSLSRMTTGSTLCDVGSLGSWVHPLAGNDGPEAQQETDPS

GPR151 = target: T3, GPR151 (Homo sapiens, UniProt Q8TDV0); experiment: β-arrestin recruitment GPCR agonist assay (PathHunter), GPR151; assay type: cell-based; conditions: Table 1, GPCR GPR151 (Q8TDV0)
T3 sequence (Q8TDV0 1-419): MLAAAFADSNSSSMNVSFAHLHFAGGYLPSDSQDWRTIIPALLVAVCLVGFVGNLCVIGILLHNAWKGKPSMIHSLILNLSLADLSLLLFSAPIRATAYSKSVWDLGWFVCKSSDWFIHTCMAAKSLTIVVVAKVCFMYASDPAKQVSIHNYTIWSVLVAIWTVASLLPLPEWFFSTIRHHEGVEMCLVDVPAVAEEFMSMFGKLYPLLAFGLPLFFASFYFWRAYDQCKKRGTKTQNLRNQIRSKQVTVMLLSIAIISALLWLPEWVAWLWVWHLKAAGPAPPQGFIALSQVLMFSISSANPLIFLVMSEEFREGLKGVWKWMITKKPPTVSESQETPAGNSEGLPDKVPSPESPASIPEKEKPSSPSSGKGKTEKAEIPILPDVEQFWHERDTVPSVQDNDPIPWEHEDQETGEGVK

HRH4 = HRH4 (Homo sapiens, UniProt Q9H3N8); experiment: β-arrestin recruitment GPCR agonist assay (PathHunter), HRH4; assay type: cell-based; conditions: result in words
Sequence of HRH4 (Q9H3N8 whole entry): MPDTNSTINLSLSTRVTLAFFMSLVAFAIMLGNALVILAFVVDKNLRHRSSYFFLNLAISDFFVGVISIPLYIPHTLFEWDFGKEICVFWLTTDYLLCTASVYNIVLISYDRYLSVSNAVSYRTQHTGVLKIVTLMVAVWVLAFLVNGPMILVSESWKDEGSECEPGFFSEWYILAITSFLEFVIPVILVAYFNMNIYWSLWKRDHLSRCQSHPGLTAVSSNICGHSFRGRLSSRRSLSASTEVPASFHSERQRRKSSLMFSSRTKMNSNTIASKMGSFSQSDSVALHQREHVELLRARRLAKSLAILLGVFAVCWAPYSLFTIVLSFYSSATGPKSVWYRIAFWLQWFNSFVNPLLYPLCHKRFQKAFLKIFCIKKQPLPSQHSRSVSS

[4] = test system: histamine receptor (HRH) family; experiment: β-arrestin recruitment GPCR agonist assay (PathHunter), histamine receptor family; assay type: cell-based, human; conditions: synthetic polyamines; result in words
[5] = test system: serotonin receptors (HTRs); experiment: β-arrestin recruitment GPCR agonist assay (PathHunter), serotonin receptors; assay type: cell-based, human; conditions: result in words
DRD2 = experiment: β-arrestin recruitment GPCR agonist assay (PathHunter), DRD2; assay type: cell-based, human; conditions: synthetic standard; result in words
Source text: as §1, §2

DRD3 = DRD3 (Homo sapiens, UniProt P35462); experiment: β-arrestin recruitment GPCR agonist assay (PathHunter), DRD3; assay type: cell-based; conditions: synthetic standard; result in words
Sequence of DRD3 (P35462 whole entry): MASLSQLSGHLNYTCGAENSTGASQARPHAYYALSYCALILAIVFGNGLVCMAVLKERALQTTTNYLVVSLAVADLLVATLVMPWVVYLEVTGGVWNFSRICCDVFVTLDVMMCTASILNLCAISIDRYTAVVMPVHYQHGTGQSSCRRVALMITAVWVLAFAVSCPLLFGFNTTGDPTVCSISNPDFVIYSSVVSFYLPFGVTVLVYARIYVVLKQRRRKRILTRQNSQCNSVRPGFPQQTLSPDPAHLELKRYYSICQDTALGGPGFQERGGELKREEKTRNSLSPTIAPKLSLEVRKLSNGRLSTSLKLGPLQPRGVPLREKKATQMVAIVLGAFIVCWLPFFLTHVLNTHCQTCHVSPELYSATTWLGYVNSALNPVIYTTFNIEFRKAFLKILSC

[6] = Table 1, GPCR UTR2 (Q9UKP6), read-out: EC50 (μM), UTR2

Sequence of GPR109B (P49019 whole entry): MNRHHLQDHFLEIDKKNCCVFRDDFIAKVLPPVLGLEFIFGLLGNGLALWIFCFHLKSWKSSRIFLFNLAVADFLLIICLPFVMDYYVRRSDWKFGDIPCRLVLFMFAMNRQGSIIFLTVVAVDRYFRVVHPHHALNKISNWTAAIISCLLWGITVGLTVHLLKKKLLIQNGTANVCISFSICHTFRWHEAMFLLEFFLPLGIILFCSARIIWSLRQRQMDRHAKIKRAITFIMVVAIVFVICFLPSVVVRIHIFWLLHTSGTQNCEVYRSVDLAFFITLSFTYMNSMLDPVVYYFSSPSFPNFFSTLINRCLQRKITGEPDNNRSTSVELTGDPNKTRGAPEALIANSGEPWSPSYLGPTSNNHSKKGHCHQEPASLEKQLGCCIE

## O=C(O)C=Cc1ccc(O)cc1 [4-hydroxycinnamic acid]
GPR109B
  EC50: 208 µM

## CCCCCCC1CC1CCCCCCCC(=O)O (stereo not drawn) [9,10-methylenehexadecanoic acid]
[1]; Table 1, GPCR BAI1 (O14514)
  EC50: 3.2 µM
[1]; result in words
  agonism of BAI1: agonized BAIL; also recorded: BAIl-active
[2]; [6]
  EC50: 52 µM

## CCC(C)CCCCCCCCCCC(=O)O (stereo not drawn) [12-methylmyristic acid, 12-methyltetradecanoic acid]
[3]; Table 1, GPCR NMU1R (Q9HB89), read-out: EC50 (μM), NMU1R
  EC50: 29 µM
[3]
  agonist activity at NMU1R: NMU1R-active
[3]; synthetic and natural compound, read-out: EC50, agonism of NMU1R (converted)
  EC50: 132 µM
[2]; [6]
  EC50: 49 µM
[2]; synthetic and natural compound, read-out: EC50, agonism of UTR2 (converted)
  EC50: 202 µM
GPR151
  EC50: 49 µM

## CC(C)CCCCCCCCCCCC(=O)O [13-methylmyristic acid, 13-methyltetradecanoic acid]
GPR151
  EC50: 44 µM

## CCC(C)CCCCCCCCCCCCC(=O)O (stereo not drawn) [14-methylpalmitic acid]
GPR151
  EC50: 40 µM

## N=C(N)NCCCCN [Agmatine, agmatine, reference compound]
HRH4
  agonism / activation of HRH4: selectively agonized HRH4 but to a lesser extent than cadaverine

## CCC(C)CCCCCCCCCCCCC(=O)O (stereo not drawn) [aiC17:0, reference compound]
[3]
  agonist activity at NMU1R: minimal agonist activity
[2]
  agonist activity at UTR2: minimal agonist activity

## NCCCCCN [cadaverine]
HRH4
  agonism / activation of HRH4: major metabolite responsible for HRH4 activation; also recorded: HRH4 agonist
HRH4; listed as Cadaverine
  agonism / activation of HRH4: HRH4 agonist

## CC(C)CCCCCCCCCCCC(=O)O [iC15:0, reference compound]
[3]
  agonist activity at NMU1R: minimal agonist activity
[2]
  agonist activity at UTR2: minimal agonist activity

## NCCCCN [putrescine, reference compound]
HRH4
  agonism / activation of HRH4: selectively agonized HRH4 but to a lesser extent than cadaverine

## NCCCCNCCCN [spermidine]
[4]
  HRH activity across the entire receptor family: no HRH activity across the entire receptor family

## NCCc1c[nH]c2ccccc12 [tryptamine]
[5]
  agonism of serotonin receptors (HTRs): can modulate serotonin receptors

## NCCc1ccc(O)cc1 [tyramine]
DRD2
  agonism of DRD2: agonism of DRD2 and DRD3 was validated
DRD3
  agonism of DRD3: agonism of DRD2 and DRD3 was validated
